One test addresses T1, CDK2/Cyclin E (Homo sapiens, UniProt P24941).
T1 construct: purchased Eurofins 14-475
In words: CDK2/Cyclin E enzymatic phosphorylation assay (Caliper mobility shift). Further: 1.0 mM ATP or ATP Km. The format is biochemical. As to conditions: read-out: Enzyme CDK2/cyclin E IC50. How it is done:
(§1) Reactions proceeded until between 10% to 20% total peptides were phosphorylated at room temperature (25° C.) and were terminated with 35 mM 2,2′,2″,2′″-(ethane-1,2-diyldinitrilo)tetraacetic acid (EDTA). Product was detected using the Caliper mobility shift detection method where the phosphorylated peptide (product) and substrate were electrophoretically separated and measured. Percent activity was plotted against log concentration of compound and points to generate an apparent IC50.

The target of the next test is T2, CDK1/Cyclin B1 (Homo sapiens, UniProt P06493).
T2 construct: GST; purchased BPS 40454
T2 sequence (P06493 whole entry): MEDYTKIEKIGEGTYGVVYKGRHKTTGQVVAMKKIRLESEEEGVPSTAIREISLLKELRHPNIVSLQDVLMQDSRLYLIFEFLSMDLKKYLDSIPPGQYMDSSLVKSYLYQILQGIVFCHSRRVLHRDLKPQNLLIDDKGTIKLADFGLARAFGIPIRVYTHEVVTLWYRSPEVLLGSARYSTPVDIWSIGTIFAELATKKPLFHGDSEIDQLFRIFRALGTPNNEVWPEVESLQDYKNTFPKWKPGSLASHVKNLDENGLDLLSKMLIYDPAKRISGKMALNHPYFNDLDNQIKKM
T2 sequence (P14635 whole entry partner): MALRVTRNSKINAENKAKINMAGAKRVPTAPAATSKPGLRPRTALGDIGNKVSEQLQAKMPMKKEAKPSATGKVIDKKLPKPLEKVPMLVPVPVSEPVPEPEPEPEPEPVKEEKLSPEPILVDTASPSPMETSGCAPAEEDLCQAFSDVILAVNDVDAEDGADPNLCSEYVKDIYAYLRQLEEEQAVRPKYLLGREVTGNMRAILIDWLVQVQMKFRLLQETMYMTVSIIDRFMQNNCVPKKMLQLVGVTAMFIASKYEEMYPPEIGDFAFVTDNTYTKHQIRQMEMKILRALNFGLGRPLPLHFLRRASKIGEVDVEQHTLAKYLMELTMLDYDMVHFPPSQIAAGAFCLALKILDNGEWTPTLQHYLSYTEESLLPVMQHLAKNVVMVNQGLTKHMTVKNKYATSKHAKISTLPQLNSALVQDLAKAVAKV
Put plainly: CDK1/Cyclin B1 enzymatic phosphorylation assay (Caliper mobility shift). The format is biochemical. To be noted: read-out: Enzyme CDK1/cyclin B1 IC50. How it is done: as §1

`Cc1cc(Nc2cnc3c(Cl)nn([C@@H](C)c4cccnc4F)c3n2)n[nH]1` [Example 28, (S)-3-chloro-1-(1-(2-fluoropyridin-3-yl)ethyl)-N-(5-methyl-1H-pyrazol-3-yl)-1H-pyrazolo[3,4-b]pyrazin-6-amine]: the results for the IC50 at CDK2/Cyclin E and on CDK1/Cyclin B1 were 5.6 nM and 2700 nM, respectively.

In the case of `CC(C)c1cc(Nc2cnc3cnn([C@@H](C)c4cccnc4)c3n2)n[nH]1` [Example 29, (S)-N-(5-isopropyl-1H-pyrazol-3-yl)-1-(1-(pyridin-3-yl)ethyl)-1H-pyrazolo[3,4-b]pyrazin-6-amine], the results for the IC50 on CDK2/Cyclin E and on CDK1/Cyclin B1 were 0.2 nM and 159 nM, respectively.

Regarding `CC(C)c1cc(Nc2cnc3cnn(CC4CCOCC4)c3n2)n[nH]1` [Example 30, N-(5-isopropyl-1H-pyrazol-3-yl)-1-((tetrahydro-2H-pyran-4-yl)methyl)-1H-pyrazolo[3,4-b]pyrazin-6-amine], the IC50 on CDK2/Cyclin E was found to be 0.6 nM; at CDK1/Cyclin B1, 113 nM.

Regarding `C[C@@H](c1cccnc1)n1ncc2ncc(Nc3cc(C4CC4)[nH]n3)nc21` [Example 31, (S)-N-(5-cyclopropyl-1H-pyrazol-3-yl)-1-(1-(pyridin-3-yl)ethyl)-1H-pyrazolo[3,4-b]pyrazin-6-amine], the IC50 on CDK2/Cyclin E was determined as 0.1 nM; at CDK1/Cyclin B1 it was 57.8 nM.

For the molecule `CCc1cc(Nc2cnc3cnn([C@@H](C)c4cccnc4)c3n2)n[nH]1` [Example 32, (S)-N-(5-ethyl-1H-pyrazol-3-yl)-1-(1-(pyridin-3-yl)ethyl)-1H-pyrazolo[3,4-b]pyrazin-6-amine], the values for the IC50 at CDK2/Cyclin E and on CDK1/Cyclin B1 were 1.9 nM and 465 nM, respectively.

For `C[C@@H](c1cccnc1)n1ncc2ncc(Nc3cc(C4COC4)[nH]n3)nc21` [Example 33, (S)-N-(5-(oxetan-3-yl)-1H-pyrazol-3-yl)-1-(1-(pyridin-3-yl)ethyl)-1H-pyrazolo[3,4-b]pyrazin-6-amine], the IC50 stood at 6.4 nM at CDK2/Cyclin E and 1420 nM at CDK1/Cyclin B1.

Consider `c1cncc(Cn2ncc3ncc(Nc4cc(C5COC5)[nH]n4)nc32)c1` [Example 34, N-(5-(oxetan-3-yl)-1H-pyrazol-3-yl)-1-(pyridin-3-ylmethyl)-1H-pyrazolo[3,4-b]pyrazin-6-amine], for which the IC50 was found to be 10.8 nM at CDK2/Cyclin E and 1900 nM at CDK1/Cyclin B1.

Take `c1nc2cnn(CC3CCOCC3)c2nc1Nc1cc(C2COC2)[nH]n1` [Example 35, N-(5-(oxetan-3-yl)-1H-pyrazol-3-yl)-1-((tetrahydro-2H-pyran-4-yl)methyl)-1H-pyrazolo[3,4-b]pyrazin-6-amine]: the IC50 stood at 11.3 nM on CDK2/Cyclin E and 877 nM on CDK1/Cyclin B1.

`c1nc2cnn(CC3CCOCC3)c2nc1Nc1cc(C2CC2)[nH]n1` [Example 36, N-(5-cyclopropyl-1H-pyrazol-3-yl)-1-((tetrahydro-2H-pyran-4-yl)methyl)-1H-pyrazolo[3,4-b]pyrazin-6-amine]: the IC50 is 0.5 nM on CDK2/Cyclin E and 83.6 nM at CDK1/Cyclin B1.

For the molecule `CCc1cc(Nc2cnc3cnn(CC4CCOCC4)c3n2)n[nH]1` [Example 37, N-(5-ethyl-1H-pyrazol-3-yl)-1-((tetrahydro-2H-pyran-4-yl)methyl)-1H-pyrazolo[3,4-b]pyrazin-6-amine], the values for the IC50 at CDK2/Cyclin E and on CDK1/Cyclin B1 were 5.4 nM and 533 nM, respectively.

Turning to `O[C@H]1CC[C@H](n2ncc3ncc(Nc4cc(C5COC5)[nH]n4)nc32)CC1` [Example 38, (1r,4r)-4-(6-((5-(oxetan-3-yl)-1H-pyrazol-3-yl)amino)-1H-pyrazolo[3,4-b]pyrazin-1-yl)cyclohexan-1-ol], the IC50 at CDK2/Cyclin E came to 3.5 nM; at CDK1/Cyclin B1, 509 nM.

For the molecule `Cc1cc(Nc2cnc3cnn([C@H]4CC[C@H](O)CC4)c3n2)n[nH]1` [Example 39, (1r,4r)-4-(6-((5-methyl-1H-pyrazol-3-yl)amino)-1H-pyrazolo[3,4-b]pyrazin-1-yl)cyclohexan-1-ol], the IC50 on CDK2/Cyclin E came out at 90 nM; on CDK1/Cyclin B1 it was 7650 nM.

As for `CC(C)c1cc(Nc2cnc3cnn([C@H](C)c4cccnc4)c3n2)n[nH]1` [Example 40, (R)-N-(5-isopropyl-1H-pyrazol-3-yl)-1-(1-(pyridin-3-yl)ethyl)-1H-pyrazolo[3,4-b]pyrazin-6-amine], the values for the IC50 on CDK2/Cyclin E and on CDK1/Cyclin B1 were 0.3 nM and 93 nM, respectively.

For `C[C@@H](C1CCOCC1)n1ncc2ncc(Nc3cc(C4COC4)[nH]n3)nc21` [Example 41, (S)-N-(5-(oxetan-3-yl)-1H-pyrazol-3-yl)-1-(1-(tetrahydro-2H-pyran-4-yl)ethyl)-1H-pyrazolo[3,4-b]pyrazin-6-amine], the IC50 at CDK2/Cyclin E was 1.7 nM; at CDK1/Cyclin B1 it was 334 nM.

As to `C[C@@H](c1ccccc1)n1ncc2ncc(Nc3cc(C4COC4)[nH]n3)nc21` [Example 42, (S)-N-(5-(oxetan-3-yl)-1H-pyrazol-3-yl)-1-(1-phenylethyl)-1H-pyrazolo[3,4-b]pyrazin-6-amine], the values for the IC50 on CDK2/Cyclin E and at CDK1/Cyclin B1 were 2.3 nM and 592 nM, respectively.

For the molecule `C[C@H](C1CCOCC1)n1ncc2ncc(Nc3cc(C4COC4)[nH]n3)nc21` [Example 43, (R)-N-(5-(oxetan-3-yl)-1H-pyrazol-3-yl)-1-(1-(tetrahydro-2H-pyran-4-yl)ethyl)-1H-pyrazolo[3,4-b]pyrazin-6-amine], the results for the IC50 at CDK2/Cyclin E and on CDK1/Cyclin B1 were 21.4 nM and 1650 nM, respectively.

Turning to `c1ccc(Cn2ncc3ncc(Nc4cc(C5COC5)[nH]n4)nc32)cc1` [Example 44, 1-benzyl-N-(5-(oxetan-3-yl)-1H-pyrazol-3-yl)-1H-pyrazolo[3,4-b]pyrazin-6-amine], the IC50 at CDK2/Cyclin E worked out at 18.5 nM; on CDK1/Cyclin B1, 2220 nM.

`Fc1ccccc1Cn1ncc2ncc(Nc3cc(C4COC4)[nH]n3)nc21` [Example 45, 1-(2-fluorobenzyl)-N-(5-(oxetan-3-yl)-1H-pyrazol-3-yl)-1H-pyrazolo[3,4-b]pyrazin-6-amine]: the IC50 on CDK2/Cyclin E is 5.3 nM; at CDK1/Cyclin B1, 1380 nM.

With `Fc1cccc(Cn2ncc3ncc(Nc4cc(C5COC5)[nH]n4)nc32)c1` [Example 46, 1-(3-fluorobenzyl)-N-(5-(oxetan-3-yl)-1H-pyrazol-3-yl)-1H-pyrazolo[3,4-b]pyrazin-6-amine], the IC50 amounted to 7.9 nM on CDK2/Cyclin E and 1060 nM at CDK1/Cyclin B1.

In the case of `Fc1ccc(Cn2ncc3ncc(Nc4cc(C5COC5)[nH]n4)nc32)cc1` [Example 47, 1-(4-fluorobenzyl)-N-(5-(oxetan-3-yl)-1H-pyrazol-3-yl)-1H-pyrazolo[3,4-b]pyrazin-6-amine], the IC50 amounted to 16 nM at CDK2/Cyclin E and 1380 nM on CDK1/Cyclin B1.

For `Fc1ccc(Cn2ncc3ncc(Nc4cc(C5COC5)[nH]n4)nc32)cn1` [Example 48, 1-((6-fluoropyridin-3-yl)methyl)-N-(5-(oxetan-3-yl)-1H-pyrazol-3-yl)-1H-pyrazolo[3,4-b]pyrazin-6-amine], the IC50 on CDK2/Cyclin E was 13.1 nM; on CDK1/Cyclin B1, 1840 nM.

Take `Fc1ncccc1Cn1ncc2ncc(Nc3cc(C4COC4)[nH]n3)nc21` [Example 49, 1-((2-fluoropyridin-3-yl)methyl)-N-(5-(oxetan-3-yl)-1H-pyrazol-3-yl)-1H-pyrazolo[3,4-b]pyrazin-6-amine]: the IC50 on CDK2/Cyclin E turned out to be 2.8 nM; at CDK1/Cyclin B1 it was 644 nM.

Consider `Fc1cncc(Cn2ncc3ncc(Nc4cc(C5COC5)[nH]n4)nc32)c1` [Example 50, 1-((5-fluoropyridin-3-yl)methyl)-N-(5-(oxetan-3-yl)-1H-pyrazol-3-yl)-1H-pyrazolo[3,4-b]pyrazin-6-amine], for which the results for the IC50 on CDK2/Cyclin E and on CDK1/Cyclin B1 were 44.8 nM and 3060 nM, respectively.

As to `C[C@@H](c1cccc(F)c1)n1ncc2ncc(Nc3cc(C4COC4)[nH]n3)nc21` [Example 51, (S)-1-(1-(3-fluorophenyl)ethyl)-N-(5-(oxetan-3-yl)-1H-pyrazol-3-yl)-1H-pyrazolo[3,4-b]pyrazin-6-amine], the IC50 was 1.8 nM on CDK2/Cyclin E and 422 nM at CDK1/Cyclin B1.

Regarding `C[C@@H](c1ccccc1F)n1ncc2ncc(Nc3cc(C4COC4)[nH]n3)nc21` [Example 52, (S)-1-(1-(2-fluorophenyl)ethyl)-N-(5-(oxetan-3-yl)-1H-pyrazol-3-yl)-1H-pyrazolo[3,4-b]pyrazin-6-amine], the IC50 at CDK2/Cyclin E was 0.2 nM; on CDK1/Cyclin B1 it was 104 nM.

As to `C[C@@H](c1ccc(F)cc1)n1ncc2ncc(Nc3cc(C4COC4)[nH]n3)nc21` [Example 53, (S)-1-(1-(4-fluorophenyl)ethyl)-N-(5-(oxetan-3-yl)-1H-pyrazol-3-yl)-1H-pyrazolo[3,4-b]pyrazin-6-amine], the IC50 turned out to be 1.9 nM on CDK2/Cyclin E and 330 nM on CDK1/Cyclin B1.

On to `Cc1cc(Nc2cnc3cnn([C@@H](C)C4CCOCC4)c3n2)n[nH]1` [Example 54, (S)-N-(5-methyl-1H-pyrazol-3-yl)-1-(1-(tetrahydro-2H-pyran-4-yl)ethyl)-1H-pyrazolo[3,4-b]pyrazin-6-amine], for which the IC50 on CDK2/Cyclin E worked out at 26 nM; on CDK1/Cyclin B1 it was 3670 nM.

`C[C@@H](c1ccccn1)n1ncc2ncc(Nc3cc(C4COC4)[nH]n3)nc21` [Example 55, (S)-N-(5-(oxetan-3-yl)-1H-pyrazol-3-yl)-1-(1-(pyridin-2-yl)ethyl)-1H-pyrazolo[3,4-b]pyrazin-6-amine]: the values for the IC50 on CDK2/Cyclin E and on CDK1/Cyclin B1 were 2 nM and 951 nM, respectively.

Turning to `Cc1cc(Nc2cnc3cnn([C@@H](C)c4cccnc4F)c3n2)n[nH]1` [Example 56, (S)-1-(1-(2-fluoropyridin-3-yl)ethyl)-N-(5-methyl-1H-pyrazol-3-yl)-1H-pyrazolo[3,4-b]pyrazin-6-amine], the IC50 at CDK2/Cyclin E was determined as 3 nM; at CDK1/Cyclin B1 it was 709 nM.

On to `CC(C)c1cc(Nc2cnc3cnn([C@H]4CC[C@H](O)CC4)c3n2)n[nH]1` [Example 57, (1r,4r)-4-(6-((5-isopropyl-1H-pyrazol-3-yl)amino)-1H-pyrazolo[3,4-b]pyrazin-1-yl)cyclohexan-1-ol], for which the results for the IC50 on CDK2/Cyclin E and on CDK1/Cyclin B1 were 1 nM and 174 nM, respectively.
